Data taken from ChEMBL document CHEMBL1201862, “PubChem BioAssay data set” (2004).
Active and inactive are the calls of the source.

Legend:
[1] = inhibitors of intracellular T. cruzi replication, confirmation, NIH3T3 host cells, beta-gal luminescence (AID 2044); assay type: functional, cell-based;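 also: intracellular parasites grown in NIH/3T3 mouse fibroblasts as host cells; luminescent beta-galactosidase reporter signal from transgenic T. cruzi replicating inside host cells; inhibitors lower the luminescence signal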
Vero = assay: host cell cytotoxicity of antiviral hits, dose response, cytotoxicity control for West Nile virus antiviral project, secondary assay (AID 1650); assay type: functional; conditions: Chlorocebus sabaeus
[2] = cytotoxicity toward NIH3T3 fibroblasts, dose response, counter-screen, cell-based, ATP luminescence, mouse fibroblasts (AID 2010); assay type: functional;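 also: cells exposed to compound for about 90 hours before reading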
Beta-galactosidase = Beta-galactosidase (Escherichia coli, UniProt Q8VNN2); assay: beta-galactosidase enzyme inhibitors and activators, dose response, artefact control for CCR6 antagonist project, biochemical, E. coli enzyme, set 3 (AID 504712); assay type: functional
Sequence of Beta-galactosidase (Q8VNN2 whole entry, the tested form may be a part): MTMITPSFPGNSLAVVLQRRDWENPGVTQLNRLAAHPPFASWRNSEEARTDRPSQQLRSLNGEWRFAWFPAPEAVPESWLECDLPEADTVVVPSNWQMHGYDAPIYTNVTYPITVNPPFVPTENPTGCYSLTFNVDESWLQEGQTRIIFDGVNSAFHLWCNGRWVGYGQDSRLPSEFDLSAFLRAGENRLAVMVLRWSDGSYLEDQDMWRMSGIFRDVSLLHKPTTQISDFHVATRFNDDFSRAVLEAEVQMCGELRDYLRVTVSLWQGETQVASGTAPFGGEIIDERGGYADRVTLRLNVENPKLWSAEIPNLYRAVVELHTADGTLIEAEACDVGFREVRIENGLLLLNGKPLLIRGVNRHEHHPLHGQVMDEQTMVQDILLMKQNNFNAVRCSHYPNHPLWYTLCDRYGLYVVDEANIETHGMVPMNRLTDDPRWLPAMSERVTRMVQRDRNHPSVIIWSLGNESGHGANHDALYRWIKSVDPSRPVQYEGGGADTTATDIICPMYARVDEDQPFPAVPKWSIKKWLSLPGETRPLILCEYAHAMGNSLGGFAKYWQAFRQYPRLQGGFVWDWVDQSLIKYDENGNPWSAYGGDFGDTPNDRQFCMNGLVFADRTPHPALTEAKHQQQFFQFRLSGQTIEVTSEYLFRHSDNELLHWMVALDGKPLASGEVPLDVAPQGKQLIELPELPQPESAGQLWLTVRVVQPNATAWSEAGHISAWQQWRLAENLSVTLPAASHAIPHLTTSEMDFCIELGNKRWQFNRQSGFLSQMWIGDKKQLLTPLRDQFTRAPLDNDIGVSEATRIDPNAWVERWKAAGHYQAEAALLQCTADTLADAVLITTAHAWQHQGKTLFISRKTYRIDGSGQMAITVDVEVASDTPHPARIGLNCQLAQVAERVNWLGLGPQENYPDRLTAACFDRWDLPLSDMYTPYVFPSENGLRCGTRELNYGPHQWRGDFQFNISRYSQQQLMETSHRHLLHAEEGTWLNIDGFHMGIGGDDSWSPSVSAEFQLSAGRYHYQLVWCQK

[3] = molecular target: T1, Oxysterols receptor LXR-beta (Homo sapiens, UniProt P55055); assay: LXR agonists, Gal4 luciferase reporter, dose response, counter-screen for ssDAF-12 agonist project, cell-based, luminescence, HEK293, S. stercoralis campaign (AID 720737); assay type: functional; conditions: read-out: IC50 (the source's name)
T1 sequence (P55055 whole entry): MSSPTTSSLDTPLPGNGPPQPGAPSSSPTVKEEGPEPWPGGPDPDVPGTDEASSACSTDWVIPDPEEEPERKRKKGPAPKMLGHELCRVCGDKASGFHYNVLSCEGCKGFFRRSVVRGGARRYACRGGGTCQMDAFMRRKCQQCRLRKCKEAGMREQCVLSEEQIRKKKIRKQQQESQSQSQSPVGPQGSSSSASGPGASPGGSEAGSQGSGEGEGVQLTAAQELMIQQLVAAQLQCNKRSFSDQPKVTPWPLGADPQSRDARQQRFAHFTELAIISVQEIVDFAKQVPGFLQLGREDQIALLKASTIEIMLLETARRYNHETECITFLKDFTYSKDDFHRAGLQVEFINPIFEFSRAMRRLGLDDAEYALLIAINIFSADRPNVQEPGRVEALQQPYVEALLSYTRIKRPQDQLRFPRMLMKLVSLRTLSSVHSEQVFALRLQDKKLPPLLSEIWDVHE

[4] = molecular target: C-C chemokine receptor type 6 (Homo sapiens, UniProt P51684); assay: CCR6 receptor antagonists, dose response, cell-based, luminescent beta-arrestin readout (AID 504728); assay type: functional
Sequence of C-C chemokine receptor type 6 (P51684 whole entry): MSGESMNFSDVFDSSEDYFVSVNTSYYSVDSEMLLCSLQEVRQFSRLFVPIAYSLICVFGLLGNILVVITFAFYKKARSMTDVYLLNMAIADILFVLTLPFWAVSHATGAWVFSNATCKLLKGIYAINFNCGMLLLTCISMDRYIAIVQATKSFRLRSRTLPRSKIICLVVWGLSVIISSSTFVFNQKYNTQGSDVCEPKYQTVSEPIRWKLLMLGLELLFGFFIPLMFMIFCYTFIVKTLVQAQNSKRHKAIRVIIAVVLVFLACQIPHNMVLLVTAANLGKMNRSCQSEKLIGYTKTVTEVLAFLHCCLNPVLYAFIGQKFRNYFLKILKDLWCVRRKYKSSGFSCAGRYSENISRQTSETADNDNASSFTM

[5] = Luminescence-based cell-based high throughput dose response assay to identify activators of the DAF-12 from the parasite S. stercoralis (ssDAF-12).; assay type: functional
[6] = molecular target: Serine/threonine-protein phosphatase PP1-alpha catalytic subunit (Homo sapiens, UniProt P62136); assay: PP1 phosphatase inhibitors, dose response, biochemical, fluorescence (AID 2403);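 also: phosphatase turnover of OMFP into fluorescent 3-O-methylfluorescein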
Sequence of Serine/threonine-protein phosphatase PP1-alpha catalytic subunit (P62136 whole entry): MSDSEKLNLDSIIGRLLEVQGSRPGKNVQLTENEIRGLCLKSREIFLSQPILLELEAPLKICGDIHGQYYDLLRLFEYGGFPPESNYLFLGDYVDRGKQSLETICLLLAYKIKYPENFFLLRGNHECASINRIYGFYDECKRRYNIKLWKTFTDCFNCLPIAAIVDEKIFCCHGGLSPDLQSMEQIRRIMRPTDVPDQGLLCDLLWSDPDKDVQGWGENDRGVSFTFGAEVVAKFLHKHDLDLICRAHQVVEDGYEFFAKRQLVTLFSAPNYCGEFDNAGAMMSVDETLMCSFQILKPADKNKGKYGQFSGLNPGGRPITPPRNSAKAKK

[7] = molecular target: Serine/threonine-protein phosphatase (Homo sapiens, UniProt Q9BPW0); assay: Counterscreen for inhibitors of PP1: fluorescence-based biochemical high throughput dose response assay to identify inhibitors of Protein Phosphatase 5 (PP5). [Related pubchem assays: 2034 (Summary (PP5 inhibitors)), 1987 (PP5 inhibitors in singlate), 2235 (PP1 inhibitors in singlate)]
Sequence of Serine/threonine-protein phosphatase (Q9BPW0 whole entry): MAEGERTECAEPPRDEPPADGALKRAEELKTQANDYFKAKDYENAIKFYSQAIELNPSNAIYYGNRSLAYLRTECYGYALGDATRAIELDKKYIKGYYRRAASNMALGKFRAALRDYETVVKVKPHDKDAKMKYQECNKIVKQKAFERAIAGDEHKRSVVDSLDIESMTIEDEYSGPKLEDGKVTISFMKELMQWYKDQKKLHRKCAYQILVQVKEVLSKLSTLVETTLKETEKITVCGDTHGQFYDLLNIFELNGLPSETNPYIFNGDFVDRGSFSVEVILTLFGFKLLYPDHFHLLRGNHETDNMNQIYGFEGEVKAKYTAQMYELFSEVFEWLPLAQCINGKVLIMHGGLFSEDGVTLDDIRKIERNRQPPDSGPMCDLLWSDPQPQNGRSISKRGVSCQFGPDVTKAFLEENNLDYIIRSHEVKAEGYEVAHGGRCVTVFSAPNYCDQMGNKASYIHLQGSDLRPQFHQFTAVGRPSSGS

[8] = A Cell Based Secondary Assay To Explore Cytotoxicity of Compounds that Sensitize Mycobacterium Tuberculosis to Beta-Lactam Antibiotics.; assay type: functional
Leucine aminopeptidase = Leucine aminopeptidase (Plasmodium falciparum 3D7, UniProt Q8IL11); assay: P. falciparum M17LAP inhibitors, primary screen, biochemical, fluorogenic H-Leu-NHMec substrate, 1536-well (AID 1619); assay type: functional
Sequence of Leucine aminopeptidase (Q8IL11 whole entry): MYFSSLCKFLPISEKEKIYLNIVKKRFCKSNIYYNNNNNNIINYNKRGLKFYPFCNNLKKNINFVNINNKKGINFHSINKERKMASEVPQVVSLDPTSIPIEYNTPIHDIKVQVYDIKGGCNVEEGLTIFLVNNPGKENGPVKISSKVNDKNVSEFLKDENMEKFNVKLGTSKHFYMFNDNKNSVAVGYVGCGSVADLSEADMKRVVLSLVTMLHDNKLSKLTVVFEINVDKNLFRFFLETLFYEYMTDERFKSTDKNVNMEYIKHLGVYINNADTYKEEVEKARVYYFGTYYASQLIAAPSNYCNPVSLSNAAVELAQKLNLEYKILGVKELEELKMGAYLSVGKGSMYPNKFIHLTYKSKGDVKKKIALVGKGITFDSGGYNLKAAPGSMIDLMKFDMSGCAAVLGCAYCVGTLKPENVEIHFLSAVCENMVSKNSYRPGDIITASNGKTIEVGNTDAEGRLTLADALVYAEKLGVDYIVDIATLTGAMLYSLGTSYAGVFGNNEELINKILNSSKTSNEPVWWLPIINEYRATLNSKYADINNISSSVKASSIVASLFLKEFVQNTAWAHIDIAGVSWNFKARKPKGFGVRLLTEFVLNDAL

[9] = HEp-2 cell cytotoxicity, dose response, cytotoxicity control for RSV inhibitor project, HTS (AID 2410); assay type: functional; conditions: human respiratory syncytial virus
Estrogen receptor = Estrogen receptor (Homo sapiens, UniProt P03372); assay: potentiators of ERα–SRC-1 coactivator binding, dose response, biochemical, TR-FRET, ERα LBD (AID 737)
Sequence of Estrogen receptor (P03372 whole entry, the tested form may be a part): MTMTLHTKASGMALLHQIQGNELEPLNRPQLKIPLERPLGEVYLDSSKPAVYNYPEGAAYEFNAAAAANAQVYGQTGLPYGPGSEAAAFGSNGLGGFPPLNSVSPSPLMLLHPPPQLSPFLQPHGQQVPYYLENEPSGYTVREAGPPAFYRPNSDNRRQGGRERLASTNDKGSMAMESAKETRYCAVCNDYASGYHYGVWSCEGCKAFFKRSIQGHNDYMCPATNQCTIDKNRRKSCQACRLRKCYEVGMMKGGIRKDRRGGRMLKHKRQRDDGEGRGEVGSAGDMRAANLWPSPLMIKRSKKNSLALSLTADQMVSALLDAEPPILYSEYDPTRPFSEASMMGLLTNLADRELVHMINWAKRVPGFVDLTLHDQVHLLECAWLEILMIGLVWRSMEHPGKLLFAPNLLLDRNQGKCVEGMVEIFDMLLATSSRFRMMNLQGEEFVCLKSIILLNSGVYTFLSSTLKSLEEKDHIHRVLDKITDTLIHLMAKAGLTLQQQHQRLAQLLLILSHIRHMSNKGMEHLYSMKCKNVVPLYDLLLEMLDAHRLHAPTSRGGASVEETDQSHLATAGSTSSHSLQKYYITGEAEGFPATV

[10] = molecular target: T2, Dual specificity protein phosphatase 6 (Rattus norvegicus, UniProt Q64346); assay: MKP-3 phosphatase inhibitors, primary screen, biochemical, rat enzyme, in vitro (AID 425)
T2 sequence (Q64346 whole entry): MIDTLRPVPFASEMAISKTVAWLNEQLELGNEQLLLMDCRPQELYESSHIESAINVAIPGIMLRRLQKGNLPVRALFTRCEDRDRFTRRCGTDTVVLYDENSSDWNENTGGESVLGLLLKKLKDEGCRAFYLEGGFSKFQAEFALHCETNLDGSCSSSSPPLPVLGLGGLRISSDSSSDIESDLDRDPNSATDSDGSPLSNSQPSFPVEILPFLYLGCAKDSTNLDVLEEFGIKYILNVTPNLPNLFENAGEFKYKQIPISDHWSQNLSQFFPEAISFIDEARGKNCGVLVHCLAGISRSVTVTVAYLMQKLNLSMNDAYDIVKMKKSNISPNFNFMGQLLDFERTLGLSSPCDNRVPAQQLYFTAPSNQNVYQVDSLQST

[11] = molecular target: T3, Alkaline phosphatase, tissue-nonspecific isozyme (Homo sapiens, UniProt P05186)
T3 sequence (P05186 whole entry): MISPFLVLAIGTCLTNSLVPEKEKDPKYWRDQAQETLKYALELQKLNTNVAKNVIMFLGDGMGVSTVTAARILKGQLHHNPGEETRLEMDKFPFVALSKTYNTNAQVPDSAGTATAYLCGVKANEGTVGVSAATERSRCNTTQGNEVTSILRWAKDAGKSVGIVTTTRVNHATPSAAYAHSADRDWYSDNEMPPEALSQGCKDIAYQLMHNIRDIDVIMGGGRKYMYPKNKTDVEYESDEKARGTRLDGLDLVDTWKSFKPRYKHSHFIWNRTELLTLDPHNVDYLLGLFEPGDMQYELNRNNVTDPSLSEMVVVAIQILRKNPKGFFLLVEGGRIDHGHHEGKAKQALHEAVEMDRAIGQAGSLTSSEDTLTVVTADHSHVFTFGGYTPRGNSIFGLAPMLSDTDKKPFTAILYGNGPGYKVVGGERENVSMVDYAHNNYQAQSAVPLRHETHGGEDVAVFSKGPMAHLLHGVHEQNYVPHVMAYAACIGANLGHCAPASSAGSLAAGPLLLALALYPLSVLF

[12] = THP-1 cell cytotoxicity, dose response, cytotoxicity control for Vif-APOBEC3G degradation inhibitor project, THP-1 cells (AID 1117359); assay type: functional; conditions: Human immunodeficiency virus 1, THP-1
X-box-binding protein 1 = X-box-binding protein 1 (Homo sapiens, UniProt P17861); assay type: functional, Cricetulus griseus;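 also: confirmatory dose-response counter-screen serving a CHOP assay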
Sequence of X-box-binding protein 1 (P17861 whole entry): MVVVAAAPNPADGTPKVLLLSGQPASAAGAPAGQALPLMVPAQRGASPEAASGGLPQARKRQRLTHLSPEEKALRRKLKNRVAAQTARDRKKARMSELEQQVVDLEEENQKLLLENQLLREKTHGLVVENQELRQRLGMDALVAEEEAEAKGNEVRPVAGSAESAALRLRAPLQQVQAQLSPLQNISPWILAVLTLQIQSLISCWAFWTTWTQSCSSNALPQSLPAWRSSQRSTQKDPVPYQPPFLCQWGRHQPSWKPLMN

O=[N+]([O-])c1ccc(NC2CCN(Cc3ccccc3)CC2)c2ccncc12
EC50 [1]: 0.811 µM (active) | CC50 (Vero): > 100 µM (active) | EC50 [2]: > 60 µM (not active)

Cc1c(C(=O)Nc2nc3ccccc3[nH]2)oc2ccccc12
IC50 (Beta-galactosidase): > 66.6 µM (inactive) | EC50 [3]: > 67.5 µM (inactive) | IC50 [4]: 0.552 µM (active) | IC50 [5]: > 67.5 µM (inactive)

COc1ccc(CN2C(=O)Cc3c2nc(N)c2c(N)nc(N4CCCCC4)c(C#N)c32)cc1
IC50 [6]: 11.1 µM (not active) | IC50 [7]: > 67 µM (not active)

Cc1cc(NC(=O)CSc2nc(C(C)C)nc3sc4c(c23)CCCC4)no1
CC50 [8]: 38 µM (active)

CCc1ccccc1NC(=O)CSc1nnc[nH]1
IC50 (Leucine aminopeptidase): 34.4 µM (active)

Cc1nc2ccccc2nc(C)c1=NOCc1cccc(F)c1
IC50 (cells): 35.9 µM (active) | CC50 [9]: 41.4 µM (active)

COc1cccc(-n2nnnc2SCC(=O)Nc2ccc(C(C)=O)cc2)c1
EC50 (Estrogen receptor): 17.3 µM (active)

CCOc1ccc2nc(Nc3nc4c(c(=O)[nH]3)CCC4)nc(C)c2c1
IC50 [10]: 36.8 µM (active)

CCC(C)N=C(S)NNC(=O)c1ccc(C(C)(C)C)cc1 (stereo not given)
EC50 [11]: 79.2 µM (not active) | CC50 [12]: > 40 µM (active)

CCCOc1ccc(N2C(=O)CC(SC(=NCC)Nc3cccc(F)c3)C2=O)cc1 (stereo not given)
Absolute IC50 (XBP1) (X-box-binding protein 1): 10 µM

N#Cc1ccsc1NC(=O)CSc1nnc[nH]1
IC50 (Leucine aminopeptidase): 10.7 µM (active)

CCSc1nc2c(cnn2-c2ccc(C)cc2)c(=O)[nH]1
EC50 (Estrogen receptor): 14.4 µM (active)
